# Results published in patent US20230250106A1, “COMPOUNDS AND COMPOSITIONS FOR TREATING CONDITIONS ASSOCIATED WITH STING ACTIVITY” (IFM Due, Inc., priority 2020, published 2023).
# System: STING pathway
# Assay: STING reporter assay: luciferase reporter activity in THP1-Dual KO-IFNAR2 cells activated with 2'3'cGAMP
# Assay type: cell-based
# Settings: Homo sapiens, 2'3'cGAMP 15 μM, 24 h, read-out: hSTING EC50
# Procedure: STING pathway activation by the compounds described herein was measured using THP1-Dual™ cells (KO-IFNAR2).
# THP1-Dual™ KO-IFNAR2 Cells (obtained from invivogen) were maintained in RPMI, 10% FCS, 5 ml P/S, 2 mM L-glut, 10 mM Hepes, and 1 mM sodium pyruvate. Compounds were spotted in empty 384 well tissue culture plates (Greiner 781182) by Echo for a final concentration of 0.0017-100 μM. Cells were plated into the TC plates at 40 μL per well, 2×10E6 cells/mL. For activation with STING ligand, 2′3′cGAMP (MW 718.38, obtained from Invivogen), was prepared in Optimem media.
# The following solutions were prepared for each 1×384 plate: • Solution A: 2 mL Optimem with one of the following stimuli: • 60 μL of 10 mM 2′3′cGAMP→150 μM stock • Solution B: 2 mL Optimem with 60 μL Lipofectamine 2000→Incubate 5 min at RT
# 2 mL of solution A and 2 ml Solution B was mixed and incubated for 20 min at room temperature (RT). 20 μL of transfection solution (A+B) was added on top of the plated cells, with a final 2′3′cGAMP concentration of 15 μM. The plates were then centrifuged immediately at 340 g for 1 minute, after which they were incubated at 37° C., 5% CO2,>98% humidity for 24 h. Luciferase reporter activity was then measured. EC50 values were calculated by using standard methods known in the art.
# Luciferase reporter assay: 10 μL of supernatant from the assay was transferred to white 384-plate with flat bottom and squared wells. One pouch of QUANTI-Luc™ Plus was dissolved in 25 mL of water. 100 μL of QLC Stabilizer per 25 mL of QUANTI-Luc™ Plus solution was added. 50 μL of QUANTI-Luc™ Plus/QLC solution per well was then added. Luminescence was measured on a Platereader (e.g., Spectramax I3X (Molecular Devices GF3637001)).
# Luciferase reporter activity was then measured. EC50 values were calculated by using standard methods known in the art.
row,Structure (SMILES),EC50
1,"O=C(Nc1c[nH]c2cc(F)c(F)cc12)c1ccc(CCOC(F)(F)F)cc1 [Compound 110, N-(5,6-difluoro-1H-indol-3-yl)-4-(2-(trifluoromethoxy)ethyl)benzamide]",40 to 200 nM
2,"O=C(Nc1c[nH]c2cc(F)c(F)cc12)c1cnc(N2CCC(OC(F)(F)F)CC2)cn1 [Compound 182, N-(5,6-difluoro-1H-indol-3-yl)-5-(4-(trifluoromethoxy)piperidin-1-yl)pyrazine-2-carboxamide]",40 to 200 nM
3,"Cc1nc(C(=O)Nc2c[nH]c3cc(F)c(F)cc23)cnc1OC1CC(F)(F)C1 [Compound 208, N-(5,6-difluoro-1H-indol-3-yl)-5-(3,3-difluorocyclobutoxy)-6-methylpyrazine-2-carboxamide]",200 to 1000 nM
4,"CC(C)(CO)CCCNc1ncc(C(=O)Nc2c[nH]c3cc(F)c(F)cc23)cc1Cl [Compound 209, 5-chloro-N-(5,6-difluoro-1H-indol-3-yl)-6-((5-hydroxy-4,4-dimethylpentyl)amino)nicotinamide]",200 to 1000 nM
5,"O=C(Nc1c[nH]c2cc(F)c(F)cc12)c1ccc(N2C[C@@H]3[C@@H](COCC(F)(F)F)[C@@H]3C2)c(F)c1 [Compound 227, N-(5,6-difluoro-1H-indol-3-yl)-3-fluoro-4-((1R,5S,6r)-6-((2,2,2-tifluoroethoxy)methyl)-3-azabicyclo[3.1.0]hexan-3-yl)benzamide]",40 to 200 nM
6,"O=C(Nc1c[nH]c2cc(F)c(F)cc12)c1cccc(NCCCC(F)(F)F)c1 [Compound 169, N-(5,6-difluoro-1H-indol-3-yl)-3-((4,4,4-trifluorobutyl)amino)benzamide]",200 to 1000 nM
7,"N#Cc1cc(C(=O)Nc2c[nH]c3cc(F)c(F)cc23)ccc1N1CCC(F)(F)CC1 [Compound 188, 3-cyano-N-(5,6-difluoro-1H-indol-3-yl)-4-(4,4-difluoropiperidin-1-yl)benzamide]",200 to 1000 nM
8,"O=C(Nc1c[nH]c2cc(F)c(F)cc12)c1cnc(OCCC(F)(F)F)c(F)c1 [Compound 140, N-(5,6-difluoro-1H-indol-3-yl)-5-fluoro-6-(3,3,3-trifluoropropoxy)nicotinamide]",200 to 1000 nM
9,"O=C(Nc1c[nH]c2cc(F)c(F)cc12)c1cccc(OC(F)(F)C(F)F)c1 [Compound 117, N-(5,6-difluoro-1H-indol-3-yl)-3-(1,1,2,2-tetrafluoroethoxy)benzamide]",200 to 1000 nM
10,"Cc1cc(C(=O)Nc2c[nH]c3cc(F)c(F)cc23)ccc1OC1CC(F)(F)C1 [Compound 165, N-(5,6-difluoro-1H-indol-3-yl)-4-(3,3-difluorocyclobutoxy)-3-methylbenzamide]",40 to 200 nM
11,"O=C(Nc1c[nH]c2cc(F)c(F)cc12)c1ccnc(NC2CC(F)(F)C2)c1 [Compound 247, N-(5,6-difluoro-1H-indol-3-yl)-2-((3,3-difluorocyclobutyl)amino)isonicotinamide]",200 to 1000 nM
12,"COCc1ccc(-n2cc(-c3ccc4[nH]cc(NC(=O)c5ccc(OCCCC(F)(F)F)cc5)c4c3)cn2)cc1 [Compound 162, N-(5-(1-(4-(methoxymethyl)phenyl)-1H-pyrazol-4-yl)-1H-indol-3-yl)-4-(4,4,4-trifluorobutoxy)benzamide]",40 to 200 nM
13,"COCCNc1cc(C(=O)Nc2c[nH]c3cc(F)c(F)cc23)ccn1 [Compound 238, N-(5,6-difluoro-1H-indol-3-yl)-2-((2-methoxyethyl)amino)isonicotinamide]",5000 to 100000 nM
14,"CCC1Cc2ccc(C(=O)Nc3c[nH]c4cc(F)c(F)cc34)cc2C1 (centres unmarked) [Compound 261, N-(5,6-difluoro-1H-indol-3-yl)-2-ethyl-2,3-dihydro-1H-indene-5-carboxamide]",200 to 1000 nM
15,"Cc1ccc(C(=O)Nc2c[nH]c3cc(F)c(F)cc23)cc1OCCCC(F)(F)F [Compound 172, N-(5,6-difluoro-1H-indol-3-yl)-4-methyl-3-(4,4,4-trifluorobutoxy)benzamide]",200 to 1000 nM
16,"O=C(Nc1c[nH]c2ncc(F)cc12)c1ccc(OCCCC(F)(F)F)c(F)c1 [Compound 144, 3-fluoro-N-(5-fluoro-1H-pyrrolo[2,3-b]pyridin-3-yl)-4-(4,4,4-trifluorobutoxy)benzamide]",1000 to 5000 nM
17,"Cc1cc(C(=O)Nc2c[nH]c3cc(F)c(F)cc23)cnc1NCCCC(F)(F)F [Compound 191, N-(5,6-difluoro-1H-indol-3-yl)-5-methyl-6-((4,4,4-trifluorobutyl)amino)nicotinamide]",200 to 1000 nM
18,"O=C(Nc1c[nH]c2cc(F)c(F)cc12)c1ccc(OC(F)(F)F)nc1 [Compound 197, N-(5,6-difluoro-1H-indol-3-yl)-6-(trifluoromethoxy)pyridine-3-carboxamide]",200 to 1000 nM
19,"O=C(Nc1c[nH]c2cc(F)c(F)cc12)c1cnc(NCCC(F)(F)F)c(Cl)c1 [Compound 239, 5-chloro-N-(5,6-difluoro-1H-indol-3-yl)-6-((3,3,3-trifluoropropyl)amino)nicotinamide]",200 to 1000 nM
20,"CC(C)Oc1ccc(C(=O)Nc2c[nH]c3cc(F)c(F)cc23)cc1C#N [Compound 120, 3-cyano-N-(5,6-difluoro-1H-indol-3-yl)-4-(propan-2-yloxy)benzamide]",200 to 1000 nM
21,"N#CC1(c2ccc(C(=O)Nc3c[nH]c4cc(F)c(F)cc34)cc2)CCC(F)(F)CC1 [Compound 213, 4-(1-cyano-4,4-difluorocyclohexyl)-N-(5,6-difluoro-1H-indol-3-yl)benzamide]",200 to 1000 nM
22,"O=C(Nc1c[nH]c2cc(F)c(F)cc12)c1cc(Cc2ccc(C(F)(F)F)cc2)c(=O)[nH]n1 [Compound 105, N-(5,6-difluoro-1H-indol-3-yl)-6-oxo-5-(4-(trifluoromethyl)benzyl)-1,6-dihydropyridazine-3-carboxamide]",200 to 1000 nM
23,"O=C(Nc1c[nH]c2cc(F)c(F)cc12)c1ccc(OCCCC(F)(F)F)c(Cl)c1 [Compound 151, 3-chloro-N-(5,6-difluoro-1H-indol-3-yl)-4-(4,4,4-trifluorobutoxy)benzamide]",200 to 1000 nM
24,"CC(C)Oc1cc(C(=O)Nc2c[nH]c3cc(F)c(F)cc23)ccn1 [Compound 113, N-(5,6-difluoro-1H-indol-3-yl)-2-(propan-2-yloxy)pyridine-4-carboxamide]",200 to 1000 nM
25,"CC(C)Oc1ccc(C(=O)Nc2c[nH]c3cc(F)c(F)cc23)cc1 [Compound 128, N-(5,6-difluoro-1H-indol-3-yl)-4-isopropoxybenzamide]",200 to 1000 nM
26,"O=C(Nc1c[nH]c2cc(F)c(F)cc12)c1cnc(CN2CC(F)(F)C2)c(Cl)c1 [Compound 255, 5-chloro-N-(5,6-difluoro-1H-indol-3-yl)-6-((3,3-difluoroazetidin-1-yl)methyl)nicotinamide]",1000 to 5000 nM
27,"O=C(Nc1c[nH]c2cc(F)c(F)cc12)c1ccc(C(O)C2CC(F)(F)C2)cc1 (centres unmarked) [Compound 233, N-(5,6-difluoro-1H-indol-3-yl)-4-((3,3-difluorocyclobutyl)(hydroxy)methyl)benzamide]",200 to 1000 nM
28,"Cc1c(C(=O)Nc2c[nH]c3cc(F)c(F)cc23)ccnc1N1CC(F)(F)C1 [Compound 253, N-(5,6-difluoro-1H-indol-3-yl)-2-(3,3-difluoroazetidin-1-yl)-3-methylisonicotinamide]",1000 to 5000 nM
29,"O=C(Nc1c[nH]c2cc(F)c(F)cc12)c1cnc(N2CCC(F)(F)CC2)c(Cl)c1 [Compound 156, 5-chloro-N-(5,6-difluoro-1H-indol-3-yl)-6-(4,4-difluoropiperidin-1-yl)nicotinamide]",200 to 1000 nM
